Data published in US20240156790A1, “COMPOUNDS, COMPOSITIONS, AND METHODS FOR MODULATING FERROPTOSIS AND TREATING EXCITOTOXIC DISORDERS” (THE TRUSTEES OF COLUMBIA UNIVERSITY IN THE CITY OF NEW YORK, priority 2018, published 2024).
Where two headings read alike, the source gives them in different places.

Assays:
[1] = tested on: N27 rat dopaminergic cells; assay: Suppression of ferroptosis induced by RSL3 in N27 cells (CellTiter-Glo viability); assay type: cell-based
[2] = Plasma Stability Assay (Examples 6 and 8); assay type: in vitro ADME, mouse; conditions: for half-life at 20 µM: mouse, plasma diluted 1:1 in phosphate buffer, pH 7.4, experiment I, read-out: t1/2 I; for half-life at 20 µM / t1/2 II: plasma half-life; for t1/2 II: experiment II
Description: (§1) Mouse plasma (GeneTex) was centrifuged at 3000 rpm for 10 min at 10° C. with the resulting supernatant withdrawn and diluted 1:1 in phosphate buffer pH 7.4. To a 96-well polypropylene plate was added 50% mouse plasma phosphate buffer (195 μL). A stock solution of analog in DMSO (0.8 μL. 5 mM) or fer-1 (positive control) was added to a separate well and the components were warmed to 37° C. for 5 min with gentle agitation. The reaction was initiated with the addition of analog to plasma, and the reaction kept at 37° C. for gentle agitation for the duration of the assay. At selected time points, aliquots (15 μL) were withdrawn from the plate and quenched upon addition to cold methanol (60 μL), containing an internal standard (5 μM) in a separate 96-well polypropylene plate. At the completion of the final time-point, the samples were centrifuged at 4,000 rpm for 5 min at 4° C. The supernatant (40 μL) was withdrawn and transferred to a sample vial with insert. The samples were analyzed by LC-MS. LC-MS analysis was performed on a platform comprising a Thermo Scientific Dionex Ultimate 3000 and a Bruker amaZon SL equipped with an electrospray ionization source controlled by Bruker Hystar 3.2. Chromatographic separation was performed by injecting 5 μL of the sample onto an Agilent Eclipse Plus C18 column (2.1×50 mm, 3.5 μm) maintained at 20° C. The flow rate was maintained at 400 μL/min. The initial flow conditions were 80% solvent A (water containing 0.1% acetic acid) and 20% solvent B (methanol containing 0.1% acetic acid). Solvent B was raised to 80% over 0.50 min by 1.50 min. Solvent B was raised to 100% by 5.00 min and held there for 3.25 min. […] All analogs were detected in positive mode as [M+H]*. The percent compound remaining at each time-point was calculated as the ratio of the integrated compound peak over the internal standard peak and standardized to the t=0 time-point. Values were plotted in GraphPad Prism 9 and fit with a one phase decay.
as §1, with “3000 rpm (1053 g) for 10” for “3000 rpm for 10”, “4,000 rpm (1872 g) for 5” for “4,000 rpm for 5”, “phase decay. […]” for “phase decay.”

[3] = tested on: modified bacteria sensitive to mutagenic agents; assay type: cell-based; conditions: […] to 82 μM, 3 days
Description: The AMES test uses modified bacteria sensitive to mutagenic agents to assess a compound's ability to cause direct DNA mutations. If the tested drug can induce reverse mutational events, it will cause bacteria to revert back to a prototrophic state and grow on media lacking selected nutrients. We tested TH-2-31, TH-4-55-2, and TH-4-67 using the AMES test. CFI-4082 was also included in the test for comparison. Bacteria strains were incubated under exposure to different concentrations of tested compounds for 3 days and collected 144 data points of mutation status at each concentration. The concentration ranged from 5.1 μM to 82 μM, which is the highest local organ concentration of our compounds in the above mice study (FIG. 12).
The Ames test uses modified bacteria sensitive to mutagenic agents to assess a compound's ability to cause direct DNA mutations. If a tested compound can induce revert mutational events, it will cause bacteria to revert back to a prototrophic state and grow on media lacking selected nutrients. We evaluated TH-2-31, TH-4-55-2, and TH-4-67 in the Ames test. We also included PHB4082 in this test. Bacteria strains were incubated under exposure to different concentrations of tested compounds for three days and 144 data points were collected on mutation status across a concentration range from 5.1 μM to 82 μM, which was the highest local organ concentration observed in previous mouse studies.

[4] = Solubility in the in vivo injection vehicle; assay type: physicochemical; conditions: solution prepared for in vivo injection, no precipitation observed
Description: To achieve the 20 mg/kg dose for each compound, mice were injected with a 2 mg/mL solution in the vehicle described above.

[5] = Rattus norvegicus, N27, 24 h, Table 13, 20 nM RSL3, treated for 24 hours^d, read-out: IC50
[6] = Rattus norvegicus, N27, 24 h, 20 nM RSL3, 24 hours, separate experiment I, read-out: IC50 I
[7] = Rattus norvegicus, N27, 24 h, 20 nM RSL3, 24 hours, separate experiment II, read-out: IC50 II
[8] = Rattus norvegicus, N27, 24 h, 20 nM RSL3, 24 hours, separate experiment III, read-out: IC50 III
[9] = Rattus norvegicus, N27, 24 h, Table 3, ^d 24 hr treatment, 1,000 cells/well seeded, read-out: IC50
[10] = Rattus norvegicus, N27, 24 h, RSL3 20 nM, 24 hours of treatment, read-out: IC50
[11] = Rattus norvegicus, N27, Table 7, value used for Cmax/IC50, read-out: IC50

Structure (SMILES) | IC50 [1, 5] [nM] | IC50 ([1]; Rattus norvegicus, N27, Table 3, ^d 24 hr treatment, 1,000 cells/well seeded, read-out: IC50) [nM] | IC50 ([1]; Rattus norvegicus, N27, Table 3, ^e 48 hr treatment, 1,000 cells/well seeded, read-out: IC50) [nM] | stability in mouse plasma, in words [2] | time to full degradation in mouse plasma [2] | potency relative to fer-1, in words ([1]; 20 nM RSL3) | IC50 [1, 6] [nM] | IC50 [1, 7] [nM] | IC50 [1, 8] [nM] | IC50 [1, 9] [nM] | IC50 [1, 10] [nM] | IC50 [1, 11] [nM] | half-life at 20 µM [2] [h] | t1/2 II [2] [h] | mutagenic potential (Ames test result) [3] | Concentration (mM) [4] [mM] | Concentration (mg/mL) [4] [mg/mL] | EC50 ([1]; Rattus norvegicus, N27, text b573) [nM]
Cc1noc(-c2ccc(NC3CCCCC3)c(NC3CCCCC3)c2)n1 [PHB4082, N1,N2-dicyclohexyl-4-(3-methyl-1,2,4-oxadiazol-5-yl)benzene-1,2-diamine] | 2.6 | – | – | – | – | – | – | – | – | – | – | – | – | – | – | – | – | –
CCOC(=O)c1ccc(NC2CCCCC2)c(N)c1 [Fer-1, Ferrostatin-1, reference compound] | – | 3.2 | 12.5 | rapidly degraded in mouse plasma | less than 15 min | – | – | – | – | – | – | – | – | – | – | – | – | –
CCC(CC)Nc1cc(-c2nc(C)no2)cnc1NC1CCCCC1 [TH-4-55-2, N^2-cyclohexyl-5-(3-methyl-1,2,4-oxadiazol-5-yl)-N^3-(pentan-3-yl)pyridine-2,3-diamine] | 2.2 | – | – | not metabolized in mouse plasma | – | more potent than fer-1 | 0.8 | 1 | 4.9 | 2.2 | < 10 | 2.23 | > 4 | >4 | none of the compounds had mutagenic potential | 5.8 | 2 | –
Cc1noc(-c2cnc(NC3CCCCC3)c(NC3CCCCC3)c2)n1 [TH-2-31, N^2,N^3-dicyclohexyl-5-(3-methyl-1,2,4-oxadiazol-5-yl)pyridine-2,3-diamine] | 3.4 | – | – | not metabolized in mouse plasma | – | less potent than fer-1 | 2.6 | 1.4 | 6.1 | 3.4 | < 10 | 3.37 | > 4 | >4 | none of the compounds had mutagenic potential | 5.6 | 2 | –
Cc1noc(-c2cnc(NC3CCCC3)c(NC3CCCC3)c2)n1 [TH-4-67, N^2,N^3-dicyclopentyl-5-(3-methyl-1,2,4-oxadiazol-5-yl)pyridine-2,3-diamine] | 2.1 | – | – | not metabolized in mouse plasma | – | more potent than fer-1 | 1.5 | 1.4 | 3.4 | 2.1 | – | 2.1 | > 4 | >4 | none of the compounds had mutagenic potential | 6.1 | 2 | 2
